Tests used:
Type in all cases: cell-based, human
K562 cells [1] = assay: Binding of FITC-fibrinogen to glycoprotein IIb/IIIa complexes of differentiated K562 cells (FACS); conditions: K562 cells on OP9 cells, 40 μg/ml, 5 days, activated with 100 nM PMA
Text: Bone marrow progenitor cells, such as K562 cells, have glycoprotein IIb/IIIa complexes expressed thereon at a low level, but the number of complexes increases as the cells increase in size according to differentiation into megakaryocytes. By taking advantage of the fact that fibrinogens, which play a key role in blood clotting, bind to activated glycoprotein IIb/IIIa (GP IIb/IIIa) complex, the differentiation of K562 cells into megakaryocytes by (R)-NALPCE was investigated.
A process similar to that of Experimental Example 8 was conducted. OP9 cells were aliquoted at a density of 1×10^5 cells in 6-well plates and incubated for 24 hrs. After the OP9 cells were uniformly attached onto the bottom of the plates, K562 cells were layered at a density of 1×10^5 cells over the OP9 cells in 6-well plates. The cells were treated with 40 μg/ml of (R)-NALPCE before incubation in a day-dependent manner for 5 days. The (R)-NALPCE-treated K562 cells were transferred to 60 mm-dishes everyday and treated with 100 nM of PMA for 30 min to activate glycoprotein IIb/IIIa complexes. The cells thus differentiated were collected and suspended in 50 μl of PBS. […] Following the addition of […] of PBS, the amount of fibrinogen bound to the surface of the activated K562 cells was quantitatively determined as fluorescence was analyzed on a fluorescence-activated cell sorter (FACS) (Aria) using a Cellquest program.

K562 cells [2] = assay: Active form of platelet-like cells secreted from differentiated K562 cells, fluorescence microscopy
Procedure: OP9 cells were aliquoted at a density of 1×10^5 cells per well in 6-well plates and incubated for 24 hrs. After the OP9 cells were uniformly attached onto the bottom of the plates, K562 cells were layered at a density of 1×10^5 cells over the OP9 cells in the 6-well plates. The cells were treated with 40 μg/ml of (R)-NALPCE before incubation in a day-dependent manner for 5 days. […] The platelet-like cells were separated from the megakaryocytes by centrifuging the differentiated K562 cells at 500 rpm for 20 min and further centrifuging the supernatant at 3,000 rpm for 10 min.
A morphological comparison was made between the platelet-like cells and the pre-existing blood platelets using fibrinogen-coated slides. General slides (POLY-PREP, Sigma, U.S.A.) were coated with 20 μg/ml of fibrinogen in PBS ((R)-NALPCE-treated group) or with 1% bovine serum albumin (control) in PBS, and then incubated at 37° C. for 2 hrs in a humid atmosphere. A suspension of the separated platelet-like cells and the pre-existing blood platelets in PBS was placed on the slides. […] A drop of a mounting solution was spotted on the slides, which were then covered with a coverslip before observation under a fluorescence microscope. […] The cells thus stained were very gently washed three times with PBS and observed using a fluorescence microscope (Axiovision, Zeiss) with 400× magnification.

HEL cells = assay: Differentiation inductivity, lineage receptor expression by FACS, HEL cells; conditions: 5 μg/ml (R)-NALPCE 5 days or 10 nM PMA 3 days
Procedure: HEL cells were aliquoted at a density of 3×10^5 cells per well in 6-well plates and treated separately with 5 μg/ml of (R)-NALPCE and 10 nM of 12-phorbol myristate-13-acetate (PMA) (Calbiochem.), followed by incubation for 5 and 3 days, respectively. After centrifugation (1,000 rpm, 10 min), cell pellets thus obtained were washed three times with 0.01% bovine serum albumin (BSA) in PBS and incubated with 10 μl of anti-CD61-fluorescein-5-isothiocyanate (FITC) (Dako Chemicals, Carpenteria, Calif.), 20 μl of anti-CD16-Cy-Chrome (Cy) (BD Pharmingen), 10 μl of anti-glycophorin ACD235a-phycoerythrin (PE) (Dako Chemicals, Carpenteria, Calif.), and 20 μl of anti-CD14-allophycocyanin (APC) (BD Pharmingen) in 200 μl of 0.01% bovine serum albumin (BSA)-PBS at 4° C. for 50 min with spinning so as to achieve homogenous fluorescent staining over the cells. After centrifugation (1,000 rpm, 10 min), the cell pellets thus obtained were washed three times with 0.01% bovine serum albumin (BSA) in PBS. Fluorescence was analyzed on a fluorescence-activated cell sorter (FACS) (Aria) using a Cellquest program.

K562 cells [3] = assay: Production of thrombocytes, K562 cells on OP9 cells, optical microscopy; conditions: 40 μg/ml
Procedure: An experiment was conducted in a manner similar to that of Example 7. OP9 cells were aliquoted at a density of 1×10^5 cells per well in 6-well plates and incubated for 24 hrs. After OP9 cells were uniformly attached onto the bottom of the plates, K562 cells were layered at a density of 1×10^5 cells per well over the OP cells in the 6-well plates. Treatment with 40 μg/ml of (R)-NALPCE was conducted before incubation in a day-dependent manner for 5 days. They were observed under an optical microscope with 200× magnification.

K562 cells [4] = assay: Growth curve of K562 cells (trypan blue viable cell count); conditions: 40 μg/ml, counted every day for 5 days
Procedure: To examine the effect of the compound (R)-NALPCE on cell growth, K562 cells was monitored for growth in the presence thereof. The cells were aliquoted at a density of 1×10^5 cells per well in 6-well plates and treated with 40 μg/ml. After staining with trypan blue, viable cells were counted every day for 5 days.

## CCCCCCCCCCCCCCCCCC(=O)NC(COP(=O)([O-])OCC[N+](C)(C)C)C(=O)OC [(R)-NALPCE, N-steroyl-O-phosphocholine-D-serine methyl ester]
K562 cells [1]
  fluorescence of fibrinogens bound to glycoprotein IIb/IIIa complexes: increase in a day-dependent manner
K562 cells [2]; K562 cells on OP9 cells, 40 μg/ml, Day 5 after the treatment
  appearance of anucleate platelet-like cells: a large number of anucleate platelet-like cells appeared
K562 cells [2]; fibrinogen-coated slides, activators ADP, epinephrine, AYPGFK, MnCl2
  activation of released anucleate cells: activated in the same manner as the pre-existing blood platelets
HEL cells
  expression of CD61, CD235a, CD16 and CD14 receptors: CD61 and CD16 were specifically expressed
K562 cells [3]; 5 days
  cell size (optical microscope): increased in size in a time-dependent manner
K562 cells [3]; from Day 4 after the treatment
  appearance of anucleate cells: anucleate cells, such as thrombocytes, were observed
K562 cells [4]
  cell growth curve (viable cells): relatively low cell growth curve
